Test results as given in US7951956B2, “Benzoimidazole compound capable of inhibiting prostaglandin D synthetase” (Taiho Pharmaceuticals Co., Ltd., priority 2005, dated 2011).

Assays:
[1] = molecular target: human hematopoietic synthase (Homo sapiens, UniProt O60760); test: Hematopoietic synthase inhibitory activity (Experiment 1); type: biochemical; details: [14C] prostaglandin H2 10 μM, preincubated at 25° C. for 5 minutes, 1 minute reaction; read-out: Concentration of Pharmaceutical Compound Required to Inhibit 50% of Hematopoietic Synthase
Procedure: Experiment 1 was carried out according to the method of Urade, Y. et al. (J. Biol. Chem. 262, 3820-3825, (1987)). More specifically, the reaction mixture (49 μL); 100 mM Tris-HCl (pH 8.0), 1 mM reduced glutathione, 0.1 mg/mL γ-globulin, and human hematopoietic synthase (quantum sufficient), and a test compound (final concentration: 0.01-100 μM) were preincubated at 25° C. for 5 minutes. In place of the test compound, a DMSO solution (final concentration: 1%) was used in the solvent control group (Control Group). Subsequently, 1 μL of [^14C] prostaglandin H2 (final concentration: 10 μM) was added to start the reaction. One minute after the start of the reaction, 250 μL of a reaction stopper solution (diethylether/methanol/1M citric acid (30/4/1) cooled to −20° C. was added to stop the reaction.
Thereafter, 50 μL of the upper layer portion (organic solvent phase) was applied to a TLC plate and developed at −20° C. for 45 minutes (developer: diethylether/methanol/acetic acid (capacity ratio=90/2/1)). After drying the plate, the plate was exposed to an imaging plate for 1 to 24 hours, and the radioactivity corresponding to prostaglandin D2 was analyzed using an image analyzer (product of FUJIFILM Corporation). The area (%) occupied by the prostaglandin D2 band per lane was calculated, and the concentration of the test compound required to inhibit 50% of the hematopoietic synthase (IC50 value) was calculated by comparison with the Control group in each experiment.

[2] = system: PGD2 amount in bronchoalveolar lavage fluid; test: Inhibitory activity for prostaglandin D2 production into bronchoalveolar lavage fluid in rats (Experiment 2); type: in vivo, Brawn Norway rats; details: 10 mg/kg orally two hours before antigen inhalation; lavage fluid one hour after ovalbumin inhalation; sensitized rats
Procedure: A physiological saline solution containing 1 mg of ovalbumin and 4 mg of alum was subcutaneously injected into the backs of 7-week-old male Brawn Norway rats in an amount of 1 mL/body, and 0.06 mg of killed pertussis bacteria were intraperitoneally injected into each rat to perform active sensitization. Fourteen days after sensitization, the rats inhaled 2% ovalbumin for 10 minutes. One hour after inhalation, bronchoalveolar lavage fluid was collected. The amount of PGD2 in the bronchoalveolar lavage fluid was determined using an EIA kit. Two hours before antigen inhalation, a test compound (10 mg/kg) was orally administered.

[3] = system: antigen-induced nasal congestion; test: Ameliorating activity for antigen-induced nasal congestion in guinea pig (Experiment 3); type: in vivo, Std:Hartley guinea pigs; details: for AUC3-7 hr (nRaw increase %): 3 to 7 hours after induction
Procedure: A physiological saline solution containing 1 mg/mL of ovalbumin was subcutaneously injected into the backs of 5-week-old male Std:Hartley guinea pigs in an amount of 1 mL/body for active sensitization (primary sensitization). One week and two weeks after primary sensitization, 20 μL each of a physiological saline solution containing 10 mg/mL of ovalbumin was instilled into the nasal cavities using a micropipette (sensitization by nasal administration). Three weeks after primary sensitization, 10 μL each of a physiological saline solution containing 20 mg/mL of ovalbumin was instilled into the nasal cavities using a micropipette to induce a rhinitis reaction.
Before, and 10 minutes and 2, 3, 4, 5, 6 and 7 hours after nasal instillation of ovalbumin, the nasal airway resistance per 100 breaths was determined using a comprehensive respiratory function analysis system (“Pulmos-I”, a product of M.I.P.S. Co., Ltd.), and the average at each measurement time was calculated and expressed as nRaw. The increase % of nRaw was calculated according to the following formula. Increase(%)of nRaw at each measurement time=(nRaw at each measurement time−nRaw before induction)÷nRaw before induction×100
Nasal congestion was evaluated by measuring the area under the curve of nRaw increase % during the period of 3 to 7 hours after induction (AUC3-7 hr). “I3-7 hr” refers to the increase of nRaw during the period of 3 to 7 hours after induction. AUC3-7hr=½(I3hr+2×I4hr+2×I5hr+2×I6hr+I7hr)
To confirm the effects on nasal congestion by inhibition of PGD2 production, Compound 15 was selected as a representative compound and orally administered once a day for 15 consecutive days from the day of nasal sensitization performed 1 week after primary sensitization to the day of induction performed 3 weeks after primary sensitization. On the nasal sensitization days (1 week and 2 weeks after primary sensitization) and the induction day, compound 15 was orally administered 1 hour before intranasal instillation of ovalbumin.

Sequence of human hematopoietic synthase (O60760 whole entry): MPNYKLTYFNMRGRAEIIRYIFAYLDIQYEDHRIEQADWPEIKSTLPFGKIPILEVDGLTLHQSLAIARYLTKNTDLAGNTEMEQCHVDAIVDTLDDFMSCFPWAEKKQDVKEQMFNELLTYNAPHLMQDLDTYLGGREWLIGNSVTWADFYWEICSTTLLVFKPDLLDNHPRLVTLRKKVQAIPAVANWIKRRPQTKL

SMILES | IC50 [1] [µM] | melting point | Inhibition (%) of the PGD2 Amount in Bronchoalveolar Lavage Fluid [2] [%] | also measured
Cc1[nH]c(C#N)c(C)c1-c1nc2cc(C(=O)c3ccccc3)ccc2[nH]1 [Compound 13, 2-(2-Cyano-3,5-dimethyl-pyrrol-4-yl)-5-benzoylbenzimidazole] | 0.54 | 159 to 163 °C | 48 | 
CON(C)C(=O)c1[nH]c(C)c(-c2nc3cc(C(=O)c4ccccc4)ccc3[nH]2)c1C [Compound 15, (N-Methoxy-N-methyl)-4-(5-benzoylbenzimidazol-2-yl)-3,5-dimethylpyrrole-2-carboxamide] | 0.256 | 127 to 132 °C | >72 | Inhibition (%) of nasal congestion (AUC3-7 hr) ([3]; 3 mg/kg orally): 60.8%; AUC3-7 hr (nRaw increase %) ([3]; 3 mg/kg orally): 273.9 ± 69.1 % · hr; Inhibition (%) of nasal congestion (AUC3-7 hr) ([3]; 10 mg/kg orally): 76.5%; AUC3-7 hr (nRaw increase %) ([3]; 10 mg/kg orally): 153.5 ± 27.1 % · hr; Inhibition (%) of nasal congestion (AUC3-7 hr) ([3]; 30 mg/kg orally): 92.8%; AUC3-7 hr (nRaw increase %) ([3]; 30 mg/kg orally): 65.7 ± 28.9 % · hr
O=C(c1ccccc1)c1ccc2[nH]c(-c3ccc(C(=O)O)o3)nc2c1 [Compound 57, 5-(5-Benzoylbenzimidazol-2-yl)-furan-2-carboxylic acid] | 4.13 | 170 °C |  | 
Cc1[nH]c(C(=O)NCO)c(C)c1-c1nc2cc(C(=O)c3ccccc3)ccc2[nH]1 [Compound 67, (N-Hydroxymethyl)-4-(5-benzoylbenzimidazol-2-yl)-3,5-dimethylpyrrole-2-carboxamide] | 0.109 | 196 to 210 °C |  | 
O=C(Nc1cccc2c(=O)cc(-c3nnn[nH]3)oc12)c1ccc(OCCCCc2ccccc2)cc1 [Pranlukast, reference compound] |  |  |  | Inhibition (%) of nasal congestion (AUC3-7 hr) ([3]; 30 mg/kg orally): 81.5%; AUC3-7 hr (nRaw increase %) ([3]; 30 mg/kg orally): 126.3 ± 41.7^$$ % · hr
O=C(O)CCn1c2c(c3ccccc31)C[C@H](NS(=O)(=O)c1ccc(F)cc1)CC2 [Ramatroban, reference compound] |  |  |  | Inhibition (%) of nasal congestion (AUC3-7 hr) ([3]; 30 mg/kg orally): 70.9%; AUC3-7 hr (nRaw increase %) ([3]; 30 mg/kg orally): 183.4 ± 29.3^$$ % · hr

Continued, in another order:

IC50 [1] [µM] | melting point | SMILES | Inhibition (%) of the PGD2 Amount in Bronchoalveolar Lavage Fluid [2] [%] | also measured
0.178 |  | Cc1oc(C(=O)N2CCCC2)c(C)c1-c1nc2cc(C(=O)c3ccccc3)ccc2[nH]1 [Compound 3, (4-(5-Benzoylbenzimidazol-2-yl)-3,5-dimethyl-2-furanylcarbonyl)pyrrolidine] | 36 | 
0.592 |  | Cc1[nH]c(C(=O)N2CCOCC2)c(C)c1-c1nc2cc(C(=O)c3ccccc3)ccc2[nH]1 [Compound 40, ((4-(5-benzoylbenzimidazol-2-yl)-3,5-dimethylpyrrol-2-yl)-carbonyl)morpholine] | 65 | 
0.063 |  | Cc1[nH]c(C(=O)N2CCC=N2)c(C)c1-c1nc2cc(C(=O)c3ccccc3)ccc2[nH]1 [Compound 42, ((4-(5-Benzoylbenzimidazol-2-yl)-3,5-dimethylpyrrol-2-yl)-carbonyl)pyrazoline] | 88 | 
0.21 | 239 to 242 °C | CCOC(=O)c1[nH]c(C)c(-c2nc3cc(Oc4ccccc4)ccc3[nH]2)c1C [Compound 68, 4-(5-Phenoxybenzimidazole-2-yl)-3,5-dimethylpyrrole-2-carboxylic acid ethyl ester] |  | 
0.491 | 167 to 172 °C (dec.) | Cc1[nH]c(C(=O)O)c(C)c1-c1nc2cc(Oc3ccccc3)ccc2[nH]1 [Compound 69, 4-(5-Phenoxybenzimidazole-2-yl)-3,5-dimethylpyrrole-2-carboxylic acid] |  | 
0.614 | 251 to 254 °C | Cc1[nH]c(C(=O)N2CCCC2)c(C)c1-c1nc2cc(Oc3ccccc3)ccc2[nH]1 [Compound 70, ((4-(5-Phenoxybenzimidazole-2-yl)-3,5-dimethylpyrrol-2-yl)-2-carbonyl)pyrrolidine] |  | 
